Laboratory results taken from US8420853B2, “Derivatives of cyclic compound and the use thereof” (Wonkisopharm Co., Ltd, priority 2006, dated 2013).

System: mouse melanoma B-16 cells
Assay: Inhibitory effect on melanin synthesis
Format: cell-based
Description: In order to confirm the inhibition effect of the compounds prepared in Examples 1 to 31 and hydroquinone on melanin biosynthesis, the experiment was performed with the procedure described in the literature (Lotan R., Lotan D. Cancer Res., 40, pp. 3345-3350, 1980).
[…] The medium was cultured for 3 days and the cultured cells were separated from the medium by treating with trypsin. The separated cells were centrifuged and the melanin was extracted therefrom. The extract was treated with 1 ml of sodium hydroxide solution (1N) and boiled for 10 mins to resolve the melanin. Optical density (OD) value was measured 3 times at 475 nm by a spectrophotometer and the amount of melanin was expressed by absorbance(OD)/1×10^6 cells. The inhibitory effect of melanin (%) was calculated from the melanin synthesis as compared with the control group.

[1] = Mus musculus, B16, 72 h, concentration 5 ug/ml, B-16 cells cultured 3 days, vs control group
[2] = Mus musculus, B16, 72 h, concentration 20 ug/ml, B-16 cells cultured 3 days, vs control group
[3] = concentration 5 ug/ml, B-16 cells cultured 3 days, vs control group
[4] = concentration 20 ug/ml, B-16 cells cultured 3 days, vs control group
[5] = mouse B-16 melanoma cells, statement in words

With CCCC(=O)O[C@@H]1CCCC[C@H]1OC(=O)CCC (relative stereo) [Example 1, butyric acid 2-butyryloxy-trans-cyclohexyl ester] the inhibition at 5 µg/mL [1] was 30% and the inhibition at 20 µg/mL [2] was 55%.

With CCCCC(=O)O[C@@H]1CCCC[C@H]1OC(=O)CCCC (relative stereo) [Example 2, pentanoic acid 2-pentanoyloxy-trans-cyclohexyl ester] the inhibition at 5 µg/mL [1] was 45% and the inhibition at 20 µg/mL [2] was 78%.

CC(C)=CC(=O)O[C@@H]1CCCC[C@H]1OC(=O)C=C(C)C (relative stereo) [Example 3, 3-methyl-2-butenoic acid 2-(3-methyl-2-butenoyloxy)-trans-cyclohexyl ester] was tested, and the inhibition at 5 µg/mL [1] was 39% and the inhibition at 20 µg/mL [2] was 72%.

For CCCCCC(=O)O[C@@H]1CCCC[C@H]1OC(=O)CCCCC (relative stereo) [Example 4, hexanoic acid 2-hexanoyloxy-trans-cyclohexyl ester], the inhibition at 5 µg/mL [1] was 41% and the inhibition at 20 µg/mL [2] was 71%.

CCCCCCC(=O)O[C@@H]1CCCC[C@H]1OC(=O)CCCCCC (relative stereo) [Example 5, heptanoic acid 2-heptanoyloxy-trans-cyclohexyl ester] was tested, and the inhibition at 5 µg/mL [1] was 35% and the inhibition at 20 µg/mL [2] was 56%.

Compound CCCCCCCC(=O)O[C@@H]1CCCC[C@H]1OC(=O)CCCCCCC (relative stereo) [Example 6, octanoic acid 2-octanoyloxy-trans-cyclohexyl ester] has an inhibition at 5 µg/mL [1] of 30% and an inhibition at 20 µg/mL [2] of 51%.

With CCCCC(CC)C(=O)O[C@@H]1CCCC[C@H]1OC(=O)C(CC)CCCC (relative stereo) [Example 7, 2-ethyl-hexanoic acid 2-(2-ethyl-hexanoyloxy)-trans-cyclohexyl ester] the inhibition at 5 µg/mL [1] was 42% and the inhibition at 20 µg/mL [2] was 69%.

With CCCCCCCCC(=O)O[C@@H]1CCCC[C@H]1OC(=O)CCCCCCCC (relative stereo) [Example 8, nonanoic acid 2-nonanoyloxy-trans-cyclohexyl ester] the inhibition at 5 µg/mL [1] was 21% and the inhibition at 20 µg/mL [2] was 47%.

Compound CCCCCCCCCC(=O)O[C@@H]1CCCC[C@H]1OC(=O)CCCCCCCCC (relative stereo) [Example 9, decanoic acid 2-decanoyloxy-trans-cyclohexyl ester] has an inhibition at 5 µg/mL [1] of 19% and an inhibition at 20 µg/mL [2] of 39%.

For CCCCCCCCCCCC(=O)O[C@@H]1CCCC[C@H]1OC(=O)CCCCCCCCCCC (relative stereo) [Example 10, lauric acid 2-lauroyloxy-trans-cyclohexyl ester], the inhibition at 5 µg/mL [1] was 9% and the inhibition at 20 µg/mL [2] was 15%.

In the case of CC(C)=CC(=O)O[C@@H]1CCC[C@H]1OC(=O)C=C(C)C (relative stereo) [Example 12, 3-methyl-2-butenoic acid 2-(3-methyl-2-butenoyloxy)-trans-cyclopentyl ester], the inhibition at 5 µg/mL [1] is reported as 27% and the inhibition at 20 µg/mL [2] is reported as 56%.

In the case of CCCCCCCC(=O)O[C@@H]1CCC[C@H]1OC(=O)CCCCCCC (relative stereo) [Example 13, octanoic acid 2-octanoyloxy-trans-cyclopentyl ester], the inhibition at 5 µg/mL [1] is reported as 30% and the inhibition at 20 µg/mL [2] is reported as 54%.

CCCCC(CC)C(=O)O[C@@H]1CCC[C@H]1OC(=O)C(CC)CCCC (relative stereo) [Example 14, 2-ethyl-hexanoic acid 2-(2-ethyl-hexanoyloxy)-trans-cyclopentyl ester] showed an inhibition at 5 µg/mL [1] of 31% and an inhibition at 20 µg/mL [2] of 57%.

C=CCCC(=O)O[C@@H]1CCCC[C@H]1OC(=O)CCC=C (relative stereo) [Example 15, 4-pentenoic acid 2-(4-pentenoyloxy)-trans-cyclohexyl ester] gave an inhibition at 5 µg/mL [1] of 39% and an inhibition at 20 µg/mL [2] of 72%.

CC(C)=CC(=O)O[C@H]1CCCC[C@H]1OC(=O)C=C(C)C [Example 11, 3-methyl-2-butenoic acid 2-(3-methyl-2-butenoyloxy)-cis-cyclohexyl ester] was tested, and the inhibition at 5 µg/mL [1] was 31% and the inhibition at 20 µg/mL [2] was 54%.

CC(C)=CC(=O)Oc1ccccc1OC(=O)C=C(C)C [Example 16, 3-methyl-2-butenoic acid 2-(3-methyl-2-butenoyloxy)-phenyl ester] showed an inhibition at 5 µg/mL [1] of 15% and an inhibition at 20 µg/mL [2] of 27%.

CCCCCCCC(=O)Oc1ccccc1OC(=O)CCCCCCC [Example 17, octanoic acid 2-octanoyloxy-phenyl ester] showed an inhibition at 5 µg/mL [1] of 9% and an inhibition at 20 µg/mL [2] of 18%.

CC(C)=CC(=O)Oc1cc2ccccc2cc1OC(=O)C=C(C)C [Example 18, 3-methyl-2-butenoic acid 3-(3-methyl-2-butenoyloxy)-naphthalen-2-yl ester] was tested, and the inhibition at 5 µg/mL [1] was 47% and the inhibition at 20 µg/mL [2] was 67%.

CCCCCCCC(=O)Oc1cc2ccccc2cc1OC(=O)CCCCCCC [Example 19, octanoic acid 3-octanoyloxy-naphthalen-2-yl ester] gave an inhibition at 5 µg/mL [1] of 39% and an inhibition at 20 µg/mL [2] of 61%.

CCCCC(CC)C(=O)Oc1cc2ccccc2cc1OC(=O)C(CC)CCCC (stereo not drawn) [Example 20, 2-ethyl-hexanoic acid 3-(2-ethyl-hexanoyloxy)-naphthalen-2-yl ester] gave an inhibition at 5 µg/mL [1] of 29% and an inhibition at 20 µg/mL [2] of 55%.

For CCCCCCCC(=O)Oc1cccnc1OC(=O)CCCCCCC [Example 21, octanoic acid 3-octanoyloxy-pyridin-2-yl ester], the inhibition at 5 µg/mL [1] was 48% and the inhibition at 20 µg/mL [2] was 81%.

CC(C)=CC(=O)OC1COCC1OC(=O)C=C(C)C (stereo not drawn) [Example 22, 3-methyl-2-butenoic acid 4-(3-methyl-2-butenoyloxy)-tetrahydrofuran-3-yl ester] showed an inhibition at 5 µg/mL [1] of 27% and an inhibition at 20 µg/mL [2] of 49%.

CCCCCCCC(=O)OC1CCCC(OC(=O)CCCCCCC)C1OC(=O)CCCCCCC (stereo not drawn) [Example 24, octanoic acid 2,3-bis-octanoyloxy-cyclohexyl ester] showed an inhibition at 5 µg/mL [1] of 39% and an inhibition at 20 µg/mL [2] of 69%.

CCCC(=O)OC1C(OC(=O)CCC)C(OC(=O)CCC)C(OC(=O)CCC)C(OC(=O)CCC)C1OC(=O)CCC (stereo not drawn) [Example 25, myo-inositol hexa-O-butanoate] was tested, and the “Melanin synthesis inhibition (%)” value [3] was 27% and the “Melanin synthesis inhibition (%)” value [4] was 59%.

In the case of CC(C)=CC(=O)OC1OC[C@@H](OC(=O)C=C(C)C)[C@@H](OC(=O)C=C(C)C)[C@@H]1OC(=O)C=C(C)C (stereo partly drawn) [Example 26], the “Melanin synthesis inhibition (%)” value [3] is reported as 31% and the “Melanin synthesis inhibition (%)” value [4] is reported as 61%.

For CCCC(=O)OC[C@H]1O[C@H](OC)[C@H](OC(=O)CCC)[C@@H](OC(=O)CCC)[C@@H]1OC(=O)CCC [Example 27, methyl-alpha-D-glucose tetra-O-butanoate], the “Melanin synthesis inhibition (%)” value [3] was 29% and the “Melanin synthesis inhibition (%)” value [4] was 49%.

CC(C)CCOC1CCCCC1OCCC(C)C (stereo not drawn) [Example 28, 1,2-bis-(3-methyl-buthoxy)-cyclohexane] was tested, and the “Melanin synthesis inhibition (%)” value [3] was 25% and the “Melanin synthesis inhibition (%)” value [4] was 49%.

With CCCCCOC1CCCCC1OCCCCC (stereo not drawn) [Example 29, 1,2-bis-pentyloxy-cyclohexane] the inhibition at 5 µg/mL [1] was 22% and the inhibition at 20 µg/mL [2] was 43%.

Work on CCCCCCOC1CCCCC1OCCCCCC (stereo not drawn) [Example 30, 1,2-bis-hexyloxy-cyclohexane] yielded an inhibition at 5 µg/mL [1] of 18% and an inhibition at 20 µg/mL [2] of 41%.

Compound CCCCCCCCOC1CCCCC1OCCCCCCCC (stereo not drawn) [Example 31, 1,2-bis-octyloxy-cyclohexane] has an inhibition at 5 µg/mL [1] of 15% and an inhibition at 20 µg/mL [2] of 31%.

With Oc1ccc(O)cc1 [Hydroquinone, reference compound] the inhibition at 1 µg/mL (Mus musculus, B16, 72 h, concentration 1 ug/ml, B-16 cells cultured 3 days, vs control group) was 45%, the “Melanin synthesis inhibition (%)” value [3] was “Cell death” and the cytotoxicity [5] was “high levels of cytotoxicity”. The “inhibitory activity of melanin synthesis” value [5] was “potent inhibitory activity at low concentration”.

“butyric acid 3-methyl-2-butenoic acid 2,3-bis-(3-methyl-2-butenoyloxy)-phenyl ester [Example 23]” was tested, and the “Melanin synthesis inhibition (%)” value [3] was 48% and the “Melanin synthesis inhibition (%)” value [4] was 75%.
